Data as given in patent publication US20140065615A1, “The KRAS Variant and Tumor Biology” (YALE UNIVERSITY, priority 2011, published 2014).

Assays:
Type in all cases: cell-based
[1] = test system: BG1 (KRAS variant/BRCA wild-type cell line); test: CellTiter-Blue chemosensitivity / cell viability assay, BG1; conditions: KRAS-variant line BG1 vs non-variant CAOV3
Description: (§1) The activity of drugs alone or in combination was determined by a high-through-put CellTiter-Blue cell viability assay. For these assays, 1.2×10^3 cells were plated in each well of 384-well plates using a Precision XS liquid handling station (Bio-Tek Instruments Inc., Winooski, Vt., USA) and allowed to attach overnight with incubation at 37° C., 5% CO2. Using the liquid handling station, all drugs were serially diluted 2:3 or 1:2 in media, and 5 μl of these dilutions were added to appropriate wells at indicated times. Four replicate wells were used for each drug concentration and an additional four control wells received a diluent control without drug. At the end of the incubation period with drugs, 5 μl CellTiter-Blue reagent (Promega Corp., Madison, Wis., USA) was added to each well. Cell viability was assessed by the ability of the remaining viable cells to bioreduce resazurin to resorufin. The fluorescence of resorufin (579 nm Ex/584 nm Em) was measured using a Synergy 4 microplate reader (Bio-Tek Instruments Inc.). […] IC50s were determined using a sigmoidal equilibrium model regression using XLfit version 5.2 (ID Business Solutions Ltd). The IC50 was defined as the concentration Of drug required for a 50% reduction in growth/viability. All experiments were carried out a minimum of three times.
For example, a cell line that is KRAS variant positive/BRCA wild-type (BG1), a non-variant/BRCA wild-type cell line (CAOV3) and a cell line KRAS-variant positive/BRCA1 mutant (IGR-OV1) were tested.

[2] = test system: KRAS-variant 3′UTR reporter; test: Luciferase reporter expression after irinotecan exposure, KRAS-variant 3′UTR reporter
Excerpt: (§2) The disclosure provides a method of predicting the response of a cancer cell to the combination of a chemotherapy and monoclonal antibody therapy, including detecting a mutation in let-7 complementary site LCS6 of human KRAS in a patient sample, wherein the mutation is a SNP comprising a uracil (U) or thymine (T) to guanine (G) transition at position 4 of LCS6, and wherein the presence of the mutation indicates a resistance to the combination. In certain embodiments of this method, the cancer cell is a colorectal cancer (CRC) cell. The cancer cell may be evaluated in vitro or ex vivo. […] The chemotherapy may be a cytotoxic agent. A non-limiting example of the cytotoxic agent is irinotecan.

[3] = test system: wild-type 3′UTR reporter (KRAS); test: Luciferase reporter expression after irinotecan exposure, wild-type 3′UTR reporter
Excerpt: as §2

[4] = test system: IGR-OV1 (KRAS-variant/BRCA1 mutant cell line); test: CellTiter-Blue chemosensitivity / cell viability assay, IGR-OV1; conditions: KRAS variant and deleterious BRCA1 mutation line vs CAOV3
Description: as §1, with “three times. […]” for “three times.”

Structure (SMILES) | resistance of BG1 compared with CAOV3 [1] | reporter expression following irinotecan exposure [2] | reporter expression following irinotecan exposure [3] | resistance of IGROV1 compared with CAOV3 [4]
COc1cccc2c1C(=O)c1c(O)c3c(c(O)c1C2=O)C[C@@](O)(C(=O)CO)C[C@@H]3O[C@H]1C[C@H](N)[C@H](O)[C@H](C)O1 [Doxorubicin, doxorubicin] | significantly resistant | – | – | –
Nc1ccn([C@@H]2O[C@H](CO)[C@@H](O)C2(F)F)c(=O)n1 [Gemcitabine, gemcitabine] | significantly resistant | – | – | –
CC[C@@]1(O)C(=O)OCc2c1cc1n(c2=O)Cc2cc3c(CN(C)C)c(O)ccc3nc2-1 [Topotecan, topotecan] | significantly resistant | – | – | –
CCc1c2c(nc3ccc(OC(=O)N4CCC(N5CCCCC5)CC4)cc13)-c1cc3c(c(=O)n1C2)COC(=O)[C@]3(O)CC [irinotecan] | – | statistically-significant increase | no change | –
N.N.O=C([O-])C1(C(=O)[O-])CCC1.[Pt+2] [carboplatin] | statistically significantly resistant | – | – | not resistant
